Our source for the IC50 values is patent US10174026B2, “Histone demethylase inhibitors” (CELGENE QUANTICEL RESEARCH, INC., priority 2013, dated 2019).

Broadly, the IC50 is the concentration that gives 50% inhibition.

The target in the first assay is Jarid1A (Homo sapiens (Human), UniProt P29375). The experiment in a line: Jarid1A in vitro enzyme inhibition assay (TR-FRET).
Jarid1A, sequence (P29375 1-1090): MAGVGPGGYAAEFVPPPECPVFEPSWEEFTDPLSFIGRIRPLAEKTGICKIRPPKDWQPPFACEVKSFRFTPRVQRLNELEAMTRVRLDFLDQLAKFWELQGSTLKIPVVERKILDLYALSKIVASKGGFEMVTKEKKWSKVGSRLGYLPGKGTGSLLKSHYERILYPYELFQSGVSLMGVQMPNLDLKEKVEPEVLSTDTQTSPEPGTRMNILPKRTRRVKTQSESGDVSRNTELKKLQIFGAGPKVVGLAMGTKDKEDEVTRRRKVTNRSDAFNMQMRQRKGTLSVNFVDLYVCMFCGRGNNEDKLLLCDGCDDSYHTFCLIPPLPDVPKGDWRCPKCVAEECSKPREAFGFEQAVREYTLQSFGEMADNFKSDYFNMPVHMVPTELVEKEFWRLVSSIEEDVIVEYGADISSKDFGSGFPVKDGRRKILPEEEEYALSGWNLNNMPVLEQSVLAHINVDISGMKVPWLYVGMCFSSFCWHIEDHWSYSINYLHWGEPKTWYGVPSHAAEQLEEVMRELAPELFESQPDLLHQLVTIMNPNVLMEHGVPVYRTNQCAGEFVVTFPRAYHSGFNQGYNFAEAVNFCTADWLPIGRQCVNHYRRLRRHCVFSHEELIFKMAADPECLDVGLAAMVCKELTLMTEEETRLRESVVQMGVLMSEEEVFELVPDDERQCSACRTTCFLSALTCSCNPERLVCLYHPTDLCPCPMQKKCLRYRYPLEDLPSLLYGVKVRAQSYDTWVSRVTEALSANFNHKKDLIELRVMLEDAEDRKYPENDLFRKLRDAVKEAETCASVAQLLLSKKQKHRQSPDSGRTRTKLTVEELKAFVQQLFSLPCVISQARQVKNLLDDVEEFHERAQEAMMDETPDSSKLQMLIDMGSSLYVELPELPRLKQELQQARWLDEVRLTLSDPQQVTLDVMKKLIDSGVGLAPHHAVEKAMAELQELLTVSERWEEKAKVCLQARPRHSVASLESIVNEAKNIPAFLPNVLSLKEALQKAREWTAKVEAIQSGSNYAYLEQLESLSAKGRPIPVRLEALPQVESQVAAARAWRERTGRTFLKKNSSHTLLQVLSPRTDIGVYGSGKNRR
Settings: not given
The assay is classed as biochemical. As for the experimental part:
(§1) This assay determines the ability of a test compound to inhibit Jarid1A, Jarid1B, JMJD2C, and JMJD2A demethylase activity.
The enzymatic assay of Jarid1A activity is based upon Time Resolved-Fluorescence Resonance Energy Transfer (TR-FRET) detection.
The assay reaction was initiated by the following: 2 μl of the mixture of 900 nM H3K4me3-biotin labeled peptide and 6 μM alpha-ketoglutaric acid with 2 μl of 11-point serial diluted inhibitor in 3% DMSO was added to each well of plate, followed by the addition of 2 μl of 3 nM Jarid1A to initiate the reaction. The reaction mixture was incubated at room temp for 30 min, and terminated by the addition of 6 μl of 5 mM EDTA in LANCE detection buffer containing 50 nM Phycolink Streptavidin-allophycocyanin and 2 nM Europium-anti-H3K4me1-2 antibody.
A general note: TR-FRET usually uses a lanthanide donor and a delayed reading to cut background.
“(±)-methyl 2-(1-hydroxy-2-methylpropyl)-1H-pyrrolo[3,2-b]-pyridine-7-carboxylate [Example 30]” displayed an IC50 of 0.1 to 1 µM.

The target in the next assay is Jarid1B (Homo sapiens (Human), UniProt Q9UGL1). The experiment in a line: Jarid1B in vitro enzyme inhibition assay (TR-FRET). It counts as biochemical.
Jarid1B, sequence (Q9UGL1 2-751): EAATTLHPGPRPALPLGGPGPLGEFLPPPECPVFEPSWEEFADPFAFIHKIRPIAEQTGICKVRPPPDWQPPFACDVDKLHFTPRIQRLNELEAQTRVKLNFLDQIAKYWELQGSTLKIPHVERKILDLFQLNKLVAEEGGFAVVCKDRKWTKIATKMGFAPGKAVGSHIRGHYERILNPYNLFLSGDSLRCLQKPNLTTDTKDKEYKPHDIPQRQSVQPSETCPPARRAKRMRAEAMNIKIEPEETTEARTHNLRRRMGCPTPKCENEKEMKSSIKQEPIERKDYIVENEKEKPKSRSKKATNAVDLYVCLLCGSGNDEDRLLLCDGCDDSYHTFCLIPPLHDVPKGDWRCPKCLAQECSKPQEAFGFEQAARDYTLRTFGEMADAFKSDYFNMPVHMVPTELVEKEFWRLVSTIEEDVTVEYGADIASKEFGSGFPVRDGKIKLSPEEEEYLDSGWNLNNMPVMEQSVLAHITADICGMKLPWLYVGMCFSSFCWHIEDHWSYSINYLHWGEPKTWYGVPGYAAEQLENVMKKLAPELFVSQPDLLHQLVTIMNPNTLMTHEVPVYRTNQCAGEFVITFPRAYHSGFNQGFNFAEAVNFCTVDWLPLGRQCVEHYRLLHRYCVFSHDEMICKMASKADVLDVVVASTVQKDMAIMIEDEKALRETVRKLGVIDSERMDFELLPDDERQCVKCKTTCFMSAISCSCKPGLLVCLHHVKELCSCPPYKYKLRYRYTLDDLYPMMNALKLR
Settings: not given
As for the experimental part: as §1
The reaction mixture was incubated at room temp for 30 min, and terminated by the addition of 6 μl of 5 mM EDTA in LANCE detection buffer containing 50 nM Phycolink Streptavidin-allophycocyanin and 2 nM Europium-anti-H3K4me1-2 antibody.
Turning to “(±)-methyl 2-(1-hydroxy-2-methylpropyl)-1H-pyrrolo[3,2-b]-pyridine-7-carboxylate [Example 30]”, the IC50 is under 0.1 µM.

The target of a further assay is JMJD2C (Homo sapiens (Human), UniProt Q9H3R0). Nature of the assay: JMJD2C in vitro enzyme inhibition assay (TR-FRET). It counts as biochemical.
JMJD2C, sequence (Q9H3R0 2-372): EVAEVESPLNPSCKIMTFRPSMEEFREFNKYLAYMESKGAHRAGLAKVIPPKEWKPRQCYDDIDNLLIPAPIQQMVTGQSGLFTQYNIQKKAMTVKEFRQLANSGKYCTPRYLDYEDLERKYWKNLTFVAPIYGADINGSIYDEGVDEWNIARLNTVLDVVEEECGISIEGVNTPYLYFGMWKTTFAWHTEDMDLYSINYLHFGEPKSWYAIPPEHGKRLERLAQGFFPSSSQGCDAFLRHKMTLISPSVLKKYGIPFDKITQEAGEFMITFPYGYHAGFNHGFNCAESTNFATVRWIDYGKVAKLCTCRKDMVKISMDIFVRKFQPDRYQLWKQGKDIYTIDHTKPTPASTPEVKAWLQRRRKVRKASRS
Settings: not given
As for the experimental part: as §1
Reaction product was determined quantitatively by TR-FRET after the addition of detection reagent Phycolink Streptavidin-allophycocyanin (Prozyme) and Europium-anti-di-methylated histone H3 lysine 9 (H3K9me2) antibody (PerkinElmer) in the presence of 5 mM EDTA in LANCE detection buffer (PerkinElmer) at a final concentration of 50 nM and 1 nM, respectively.
As to “(±)-methyl 2-(1-hydroxy-2-methylpropyl)-1H-pyrrolo[3,2-b]-pyridine-7-carboxylate [Example 30]”, the concentration for half-maximal inhibition (IC50) is under 0.1 µM.

Another assay relates to KYSE-150 cell line. The experiment in a line: In vitro cell-based assay, KYSE-150 cell line: BrdU cell proliferation ELISA. The settings on record: Homo sapiens; KYSE-150 cells, 168 hr, BrdU incorporation. The procedure:
The primary cellular assay for JMJD2C inhibition is an assay which measures cellular proliferation via Bromodeoxyuridine (BrdU) incorporation after 168 hr of compound incubation. This assay is a quantitative ELISA assay measuring DNA incorporation of BrdU during S-phase as a direct readout of cellular proliferation. The KYSE-150 cell line is a JMJD2C gene amplified cell line.
This is a colorimetric immunoassay for the quantification of cell proliferation. Cells treated for 168 hr with test compounds are assayed for their ability to go through S-phase as a measure of their proliferative potential.
The human KYSE-150 (SMAD4 mut, TP53 mut) esophageal carcinoma cell line was seeded at 2,000 cells/well on a 96-well tissue culture treated plate. After an overnight incubation, cells were treated with a test compound in an 11 point dilution series with final concentrations ranging from 100 μM to 2 nM. Cells were then incubated in the presence of compound for 168 hr. After compound incubation, the cells were assayed using a BrdU Cell Proliferation ELISA (Roche). The cells were first incubated with BrdU labeling reagent for 2 hr. After 2 hr, these BrdU incorporated cells were fixed and denatured, probed with an anti-BrdU-Peroxidase antibody for 1.5 hr and washed. Finally, a tetramethylbenzidine peroxidase substrate was added to each well for 15 min followed by H2SO4 stop solution. The plate is read at 450 nm, and the raw optical density data is transferred into XLFit (IDBS) for IC50 calculation using the formula: fit=(D+((Vmax*(x^n))/((x^n)+(Km^n))))
A general note: An ELISA detects its analyte on a solid surface through an enzyme-linked reagent.
Regarding `COC(=O)c1ccnc2cc(Cc3ccc(F)c(F)c3)[nH]c12` [Example 125, methyl 2-(3,4-difluorobenzyl)-1H-pyrrolo[3,2-b]pyridine-7-carboxylate], the half-maximal inhibitory concentration (IC50) lay in the range of 1 to 10 µM.
`COC(=O)c1ccnc2cc(Cc3ccc(Cl)c(OC)c3)[nH]c12` [Example 127, methyl 2-(4-chloro-3-methoxybenzyl)-1H-pyrrolo-[3,2-b]-pyridine-7-carboxylate] yielded an IC50 of under 0.1 µM.
`COC(=O)c1ccnc2cc(Cc3ccc(Cl)c(Cl)c3)[nH]c12` [Example 129, methyl 2-(3,4-dichlorobenzyl)-1H-pyrrolo[3,2-b]pyridine-7-carboxylate] had a half-inhibitory concentration (IC50) of under 0.1 µM.
The same measure, in the same setting: the value for `COC(=O)c1ccnc2cc(Cc3cc(F)c(Cl)c(Cl)c3)[nH]c12` [Example 131, methyl 2-(3,4-dichloro-5-fluorobenzyl)-1H-pyrrolo-[3,2-b]pyridine-7-carboxylate] was under 0.1 µM; that for `COC(=O)c1ccnc2cc(Cc3ccc(Cl)c(C)c3)[nH]c12` [Example 133, methyl-2-(4-chloro-3-methylbenzyl)-1H-pyrrolo-[3,2-b]pyridine-7-carboxylate] was 0.1 to 1 µM.
Regarding `COC(=O)c1ccnc2cc(Cc3ccc(Cl)c(C(F)(F)F)c3)[nH]c12` [Example 135, methyl 2-[4-chloro-3-(trifluoromethyl)benzyl]-1H-pyrrolo[3,2-b]pyridine-7-carboxylate], the half-inhibitory concentration (IC50) was under 0.1 µM.
Same read-out and setting: the value for `COC(=O)c1ccnc2cc(Cc3ccc(Cl)c(OCC4CC4)c3)[nH]c12` [Example 137, methyl 2-[4-chloro-3-(cyclo-propylmethoxy)benzyl]-1H-pyrrolo[3,2-b]pyridine-7-carboxylate] was under 0.1 µM; that for `COC(=O)c1ccnc2cc(Cc3ccc(Cl)c(OCC(F)(F)F)c3)[nH]c12` [Example 139, methyl-2-[4-chloro-3-(2,2,2-trifluoroethoxy)benzyl]-1H-pyrrolo[3,2-b]pyridine-7-carboxylate] was under 0.1 µM; that for `COC(=O)c1ccnc2cc(Cc3ccc(Cl)c(OC(F)(F)F)c3)[nH]c12` [Example 141, methyl-2-[4-chloro-3-(trifluoromethoxy)benzyl]-1H-pyrrolo[3,2-b]pyridine-7-carboxylate] was under 0.1 µM.
For the molecule `CNC(=O)c1ccnc2cc(Cc3ccc(Cl)cc3)[nH]c12` [Example 143, 2-[4-chloro-benzyl]-N-methyl-1H-pyrrolo[3,2-b]pyridine-7-carboxamide], the 50% inhibitory concentration (IC50) fell in the range of 0.1 to 1 µM.
On the same count and under the same terms, the value for `CNC(=O)c1ccnc2cc(Cc3ccc(Cl)c(OC(F)(F)F)c3)[nH]c12` [Example 144, 2-[4-chloro-3-(trifluoro-methoxy)benzyl]-N-methyl-1H-pyrrolo-[3,2-b]pyridine-7-carboxamide] was under 0.1 µM.
